Test results reported in ChEMBL document CHEMBL1156236, “Trypanoside, anti-tuberculosis, leishmanicidal, and cytotoxic activities of tetrahydrobenzothienopyrimidines” (Bioorg Med Chem, 2010).
In brackets after ≈: the same amount, converted by molar mass.

How the values were obtained:
Leishmania amazonensis = assay: Antileishmanial activity against Leishmania amazonensis MHOM/BR/76/LTB-012 amastigotes infected BALB/c mouse macrophages after 48 hrs by MTT assay; assay type: functional, organism-based; details: MHOM/BR/76/LTB-012, 48 h
HT-29 = assay: Cytotoxicity against human HT-29 cells; assay type: functional
[1] = Cytotoxicity against BALB mouse 3T3 cells; assay type: cell-based; details: BALB 3T3 cells
K562 = assay: Cytotoxicity against human K562 cells; assay type: functional
NCI-H460 = assay: Cytotoxicity against human NCI-H460 cells; assay type: functional
[2] = Cytotoxicity against BALB/c mouse macrophages after 48 hrs by trypan blue dye exclusion method; assay type: cell-based; details: Macrophage
[3] = Selectivity index, ratio of IC50 for BALB/c mouse macrophages to IC50 for Leishmania amazonensis MHOM/BR/76/LTB-012
M14 = assay: Cytotoxicity against human M14 cells; assay type: functional
MCF7 = assay: Cytotoxicity against human MCF7 cells; assay type: functional
Trypanosoma cruzi = assay: Antitrypanosomal activity against Trypanosoma cruzi tulahuen C4 trypomastigotes infected in african green monkey Vero cells assessed as CPRG cleavage after 120 hrs by microplate reader; assay type: functional, organism-based
DU-145 = assay: Cytotoxicity against human DU145 cells; assay type: functional
[4] = system: Mycobacterium tuberculosis; assay: Antitubercular activity against Mycobacterium tuberculosis H37Rv ATCC 27294 after 7 days by microplate alamar blue assay; assay type: functional; details: H37Rv ATCC 27294, 168 h
[5] = Selectivity index, ratio of IC50 for african green monkey Vero cells to IC50 for Trypanosoma cruzi tulahuen C4
Vero = assay: Cytotoxicity against african green monkey Vero cells after 72 hrs by MTS assay; details: Chlorocebus sabaeus, Vero, 72 h
[6] = Selectivity index, ratio of IC50 for african green monkey Vero cells to MIC for Mycobacterium tuberculosis H37Rv ATCC 27294 by microplate alamar blue assay; assay type: functional

| SMILES | IC50 (Leishmania amazonensis) [µM] | GI50 (HT-29) [µM] | GI50 [1] [µM] | GI50 (K562) [µM] | GI50 (NCI-H460) [µM] | IC50 [2] [µM] | Ratio IC50 [3] | GI50 (M14) [µM] | GI50 (MCF7) [µM] | IC50 (Trypanosoma cruzi) [µM] | GI50 (DU-145) [µM] | MIC [4] [µM] | selectivity ratio ([5]; Vero cells) | IC50 (Vero) [µM] | Ratio IC50 [6] | selectivity ratio ([5]; vero) |
| --- | --- | --- | --- | --- | --- | --- | --- | --- | --- | --- | --- | --- | --- | --- | --- | --- |
| COc1cc(/C=N/Nc2ncnc3sc4c(c23)CCCC4)ccc1O | 7.2 | – | – | – | – | – | – | – | – | – | – | – | – | – | – | – |
| COc1cc(/C=N/Nc2ncnc3sc4c(c23)CCCC4)cc(OC)c1O | 40.8 | > 170 | 27.3 | > 170 | > 170 | 121 | 3 | > 170 | > 170 | > 25 | 27.2 | > 250 | – | – | – | – |
| O=[N+]([O-])c1ccc(/C=N/Nc2ncnc3sc4c(c23)CCCC4)cc1 | 38.5 | > 170 | > 170 | > 170 | > 170 | 199 | 5.2 | > 170 | > 170 | > 25 | > 170 | > 250 | – | – | – | – |
| COc1ccc(/C=N/Nc2ncnc3sc4c(c23)CCCC4)c(OC)c1 | 33.2 | 20 | 19.9 | 7.9 | 29.5 | 144 | 4.3 | 94.4 | 21.1 | 18.5 | 20 | > 250 | 1.8 | 32.6 | – | – |
| CC(C)c1ccc(/C=N/Nc2ncnc3sc4c(c23)CCCC4)cc1 | 3.6 | 5.9 | 9.4 | 4.1 | 5.9 | 8.4 | 2.3 | 17.8 | 5.2 | 5.2 | 10.8 | > 250 | 0.5 | 2.9 | – | – |
| CC(C)=NNc1ncnc2sc3c(c12)CCCC3 | 40.6 | 33 | > 3.5 | 13.6 | 9.3 | 238 | 5.9 | 23.3 | 12.2 | 14.1 | 11.6 | 240 (≈ 62.4 µg/mL) | 2.7 | 38.4 | 0.5 | – |
| C(=N\Nc1ncnc2sc3c(c12)CCCC3)/c1ccccc1 | 43.7 | 12.5 | 21.7 | 13.2 | 18.2 | 28.3 | 0.6 | 18 | 11.2 | 14.4 | 20 | 75.9 (≈ 23.4 µg/mL) | 1.8 | 25.9 | 0.5 | – |
| C(=N\Nc1ncnc2sc3c(c12)CCCC3)/c1ccncc1 | 233 | 153 | 83.2 | 109 | 169 | 154 | 0.7 | > 150 | 83.9 | > 25 | 83.9 | > 300 | – | – | – | – |
| CC(C)(C)c1ccc(/C=N/Nc2ncnc3sc4c(c23)CCCC4)cc1 | 1.7 | 15.7 | 23.2 | 6.4 | 6.4 | 6.6 | 3.8 | 30.3 | 6.3 | 11.2 | 21.9 | > 250 | 1.2 | 13.7 | – | – |
| O=c1[nH]cc(F)c(=O)[nH]1 [FLUOROURACIL] | – | – | < 3 | 89.9 | 2.3 | – | – | 32.4 | 4.5 | – | 5.3 | – | – | – | – | – |
| Cc1ccc(/C=N/Nc2ncnc3sc4c(c23)CCCC4)cc1 | 42.6 | > 170 | 37.5 | 7.1 | 133 | 19.4 | 0.5 | > 170 | 12.9 | > 25 | > 170 | > 250 | – | – | – | – |
| NNc1ncnc2sc3c(c12)CCCC3 | 54.4 | 20.7 | < 4.5 | 11.1 | 9.6 | 33.8 | 0.6 | 24.6 | 9 | 21.3 | 13.9 | 374 (≈ 82.5 µg/mL) | 1.9 | 40.9 | 0.3 | – |
| O=[N+]([O-])c1ccccc1/C=N/Nc1ncnc2sc3c(c12)CCCC3 | 108 | > 170 | > 170 | > 170 | 52.9 | > 200 | – | > 170 | 52 | > 25 | 103 | > 250 | – | – | – | – |
| CC(C)(C)/C=N/Nc1ncnc2sc3c(c12)CCCC3 | 113 | 33 | 7.3 | 27.5 | 24.5 | 176 | 1.6 | 32.7 | 26 | > 25 | 25.1 | 299 (≈ 86.3 µg/mL) | – | – | 0.3 | – |
| Fc1ccc(/C=N/Nc2ncnc3sc4c(c23)CCCC4)cc1 | 9.7 | 10.4 | 20.5 | 8.9 | 9.4 | 9.4 | 1 | 17.6 | 7.4 | 18.4 | 13.9 | 71.1 (≈ 23.2 µg/mL) | 1 | 18.4 | 0.6 | – |
| C[C@@H]1[C@H](O)[C@@H](C)/C=C/C=C/C=C/C=C/C=C/C=C/C=C/[C@H](O[C@@H]2O[C@H](C)[C@@H](O)[C@H](N)[C@@H]2O)C[C@@H]2O[C@](O)(C[C@@H](O)C[C@@H](O)[C@H](O)CC[C@@H](O)C[C@@H](O)CC(=O)O[C@H]1C)C[C@H](O)[C@H]2C(=O)O [AMPHOTERICIN B] | – | – | – | – | – | 5.4 | 54 | – | – | – | – | – | – | – | – | – |
| COc1cc(/C=N/Nc2ncnc3sc4c(c23)CCCC4)cc(OC)c1OC | 7.2 | 11.4 | 22.5 | 4.7 | 28.3 | 8.9 | 1.2 | 15.6 | 10.5 | > 25 | 22.5 | > 250 | – | – | – | – |
| C(=N\Nc1ncnc2sc3c(c12)CCCC3)/c1cccc2ccccc12 | 12.7 | 6.2 | 16.7 | 4.7 | 19.9 | 16.6 | 1.3 | 18.4 | 6.3 | 13 | 24.1 | > 250 | 0.2 | 2.8 | – | – |
| C=CCOc1cc(/C=N/Nc2ncnc3sc4c(c23)CCCC4)cc(OCC=C)c1Br | 5.3 | 3.9 | < 2 | 3.9 | 3.1 | 3.5 | 0.7 | 12.8 | 3.8 | 15.4 | < 2 | > 200 | 0.4 | 6 | – | – |
| Fc1ccccc1/C=N/Nc1ncnc2sc3c(c12)CCCC3 | 3.3 | > 250 | > 250 | 81.2 | > 250 | 10.2 | 3.1 | > 250 | > 250 | 10.8 | > 250 | > 300 | 1.7 | 18.4 | – | – |
| N#Cc1ccc(/C=N/Nc2ncnc3sc4c(c23)CCCC4)cc1 | 32.3 | > 170 | 150 | > 170 | > 170 | 162 | 5 | > 170 | 102 | > 25 | > 170 | > 300 | – | – | – | – |
| c1ccc(C(=NNc2ncnc3sc4c(c23)CCCC4)c2ccccc2)cc1 | 182 | > 170 | > 170 | > 170 | > 170 | 156 | 0.9 | > 170 | > 170 | > 25 | > 170 | > 250 | – | – | – | – |
| C(=N\Nc1ncnc2sc3c(c12)CCCC3)/c1ccc2c(c1)OCO2 | 29.4 | > 250 | > 250 | > 250 | > 250 | 16.3 | 0.6 | > 250 | 117 | 22.8 | > 250 | > 250 | 0.7 | 17 | – | – |
| CC1CS(=O)(=O)CCN1/N=C/c1ccc([N+](=O)[O-])o1 (configuration not stated) [NIFURTIMOX] | – | – | – | – | – | – | – | – | – | 4.5 | – | – | – | 94 | – | 20.8 |
| C(=N\Nc1ncnc2sc3c(c12)CCCC3)/c1ccc2ccccc2c1 | 39 | 19.4 | 27.9 | 6.2 | 20.8 | 15.9 | 0.4 | 35.2 | 9.3 | 13.3 | 24.1 | > 250 | 1.1 | 13.9 | – | – |
